Measured values published in paper PMC7082846 (ACS infectious diseases, 2019).
Converted amounts (≈) assume the structure as drawn. “And” between values parts separate entries of the source, which are not always exact repeats. Identical values can stand only once.

Key:
[1] = Plasma protein binding, mouse; assay type: in vitro ADME
human STING [2] = biological target: T1, human STING (Homo sapiens, UniProt Q86WV6); experiment: Cytokine mRNA induction; assay type: cell-based; conditions: 6 h, qRT-PCR
T1 sequence (Q86WV6 whole entry): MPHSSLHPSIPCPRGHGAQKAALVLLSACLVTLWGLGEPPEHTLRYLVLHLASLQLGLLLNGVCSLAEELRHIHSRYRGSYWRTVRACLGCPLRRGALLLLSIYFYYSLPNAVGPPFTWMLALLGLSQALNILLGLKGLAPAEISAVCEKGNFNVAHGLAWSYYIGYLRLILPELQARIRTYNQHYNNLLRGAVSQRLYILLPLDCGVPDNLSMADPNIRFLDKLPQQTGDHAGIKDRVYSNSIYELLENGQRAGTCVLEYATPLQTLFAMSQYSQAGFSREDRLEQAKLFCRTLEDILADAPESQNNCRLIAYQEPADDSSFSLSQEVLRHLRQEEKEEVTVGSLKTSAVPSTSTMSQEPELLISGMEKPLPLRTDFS

[3] = Metabolic stability in human liver microsomes; assay type: in vitro ADME
[4] = biological target: human STING with truncation of carboxyl-terminal domain (CTD) (Homo sapiens, UniProt Q86WV6); experiment: ISG54 luciferase reporter assay in HepAD38/cGAS-STINGΔC/ISG54Luc cells; assay type: cell-based; conditions: 4 h treatment
Chain of human STING with truncation of carboxyl-terminal domain (CTD) (Q86WV6 1-340 limits assumed): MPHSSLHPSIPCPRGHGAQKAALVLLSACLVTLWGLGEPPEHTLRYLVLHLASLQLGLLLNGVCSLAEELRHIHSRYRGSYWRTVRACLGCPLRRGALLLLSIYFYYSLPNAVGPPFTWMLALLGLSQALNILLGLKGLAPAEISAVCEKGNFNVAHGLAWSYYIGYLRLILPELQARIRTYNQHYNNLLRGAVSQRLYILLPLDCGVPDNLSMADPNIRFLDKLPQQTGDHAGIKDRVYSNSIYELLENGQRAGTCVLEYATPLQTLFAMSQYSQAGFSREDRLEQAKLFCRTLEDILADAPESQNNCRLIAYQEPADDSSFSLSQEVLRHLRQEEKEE

[5] = tested on: cytochrome P450 (Cyp) enzymes (CYP1A2, 2A6, 2B6, 2C8, 2C9, 2C19, 2D6, CYP2E1 and 3A4); experiment: Cytochrome P450 inhibition panel; assay type: in vitro ADME; conditions: inhibition = greater than 50% inhibition at 10 μM
mouse STING = biological target: T2, mouse STING (Mus musculus, UniProt Q3TBT3); experiment: IFN-β mRNA induction; assay type: cell-based; conditions: HepG2/mSTING cells, 6 h, qRT-PCR
T2 sequence (Q3TBT3 1-378): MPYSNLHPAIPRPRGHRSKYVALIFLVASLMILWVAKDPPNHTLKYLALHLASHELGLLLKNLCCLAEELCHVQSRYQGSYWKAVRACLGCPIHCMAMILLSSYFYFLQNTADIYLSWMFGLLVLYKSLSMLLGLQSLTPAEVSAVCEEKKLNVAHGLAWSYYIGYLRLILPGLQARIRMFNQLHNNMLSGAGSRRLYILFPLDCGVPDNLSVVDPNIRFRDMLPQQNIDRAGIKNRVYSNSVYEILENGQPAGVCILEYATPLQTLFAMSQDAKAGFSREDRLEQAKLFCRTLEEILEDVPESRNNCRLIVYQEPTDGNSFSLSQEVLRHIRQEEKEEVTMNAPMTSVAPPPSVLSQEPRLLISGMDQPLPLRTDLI

THF cells [6] = experiment: Cytotoxicity in THF cells; assay type: cell-based, human
Dengue virus (DENV) = assay type: cell-based, dengue virus (serotype 2, New Guinea C strain); conditions: THF cells pre-treated 8 h
Caco-2 permeability = assay type: in vitro ADME; conditions: human
human PBMCs = experiment: Cytokine mRNA induction; conditions: 6 h, qRT-PCR
Zika virus (ZIKV) = experiment: Antiviral assay, pre-treated THF cells infected with ZIKV; assay type: cell-based, Zika virus (PRVABC59 strain); conditions: THF cells pre-treated 8 h
[7] = Metabolic stability in mouse liver microsomes; assay type: in vitro ADME
[8] = tested on: PBMC-derived dendritic cells; experiment: Cytokine mRNA induction; conditions: BNBC 100 μM or LPS 10 μg/ml, 6 h
human STING [9] = biological target: T1, human STING; experiment: ISG54 luciferase reporter assay in HepG2/STING/ISG54Luc cells; assay type: cell-based
[10] = tested on: PBMC-derived dendritic cells; experiment: CD80 expression by flow cytometry in PBMC-derived dendritic cells; assay type: cell-based, human; conditions: BNBC 50 μM or LPS 10 μg/ml, 48 h; gated from CD11c+ cells
THF cells [11] = experiment: Cytokine response
Yellow fever virus (YFV) = assay type: cell-based, Yellow fever virus (17D strain); conditions: THF cells pre-treated 8 h
[12] = tested on: HepAD38/cGAS-STING/ISG54Luc cells; assay type: cell-based; conditions: human, 4 h
[13] = Plasma protein binding, human; assay type: in vitro ADME
[14] = Aqueous solubility in PBS; assay type: physicochemical
cGAS-STING pathway = experiment: ISG54 luciferase reporter assay in HepAD38/cGAS-STING/ISG54Luc cells; assay type: cell-based, human; conditions: 4 h treatment
human STING [15] = biological target: T1, human STING; experiment: IRF3 phosphorylation; assay type: cell-based; conditions: 100 μM, 2 h; HepG2/STING vs HepG2/STINGΔC cells
[16] = MOI 0.1, 48 h, qRT-PCR, maximal reduction

## O=C(Nc1cccc2ccccc12)c1cc2c(cc1Br)OCO2 [BNBC, 6-bromo-N-(naphthalen-1-yl)benzo[d][1,3]dioxole-5-carboxamide]
[1]
  fraction unbound: 0.0212
Human STING [2]; HepG2/STING cells
  Induction of IFN-β, IL29 (IFN-λ1) and TNF-α mRNA expression: concentration-dependently induced IFN-β, IL29 (IFN-λ1) and TNF-α mRNA expression
[3]
  half-life: 20 min
[4]
  Induction of ISG54-driven luciferase expression: did not induce luciferase expression
[5]
  Cyp IC50 < 10 μM (number of Cyps/reactions inhibited out of 10): 5 out of 10 and 5/10
Mouse STING
  Induction of IFN-β mRNA expression: not in parental HepG2 cells, HepG2/STINGΔC cells and HepG2-derived cell line expressing mouse STING (HepG2/mSTING)
THF cells [6]
  Cytotoxicity: absence of cytotoxicity
Dengue virus (DENV); [16]
  Reduction of intracellular DENV RNA level: up to 90 fold
Caco-2 permeability
  Papp A→B: 14.5 ×10⁻⁶ cm/s
  Papp B→A: 5.98 ×10⁻⁶ cm/s
  efflux ratio: 0.41
Human PBMCs
  Induction of cytokine expression: efficiently induced expression of type I and type III IFN, but to a lesser extent, TNF-α
Zika virus (ZIKV); [16]
  Reduction of intracellular ZIKV RNA level: ≤ 800 fold
[7]
  half-life: 2.21 min
[8]
  Induction of cytokine mRNAs: efficiently induced the expression of IFN-β and IL-29 mRNAs and to a lesser extent, TNF-α and IL-6 mRNAs
Human STING [9]; HepG2/STING/ISG54 reporter cells lacking cGAS
  Induction of ISG54 promoter-driven luciferase expression: concentration-dependently induced ISG54 driven luciferase expression
Human STING [9]; Minimum Effective Concentration to induce 5-fold luciferase activity relative to mock-treated control, HepG2/STING/ISG54Luc cells, 4 h
  MinEC5X: 2.2 µM
Human STING [9]; maximum fold of luciferase induction, HepG2/STING/ISG54Luc cells, 4 h
  Maximum induction (fold): 20.5 fold
[10]
  Induction of CD80 expression: significantly induced expression of CD80
THF cells [11]; THF cells with knockout of STING, but not TRIF or IPS-1 (MAVS), 50 μM, 6 h
  Effect of STING knockout on compound-induced IFN-β mRNA expression: completely abolished
THF cells [11]; THF cells, mRNA 6 h, ELISA 18 h
  Induction of cytokine mRNA and IFN-β secretion: concentration-dependently induced IFN-β, IL-28A and IL-6 mRNA expression as well as secretion of IFN-β into culture media
Yellow fever virus (YFV); [16]
  Reduction of intracellular YFV RNA level: ≤ 150 fold
[12]
  Cytotoxicity: concentration up to which no cytotoxicity was detected: > 200 µM
[13]
  fraction unbound: 0.0266
[14]; pH 4, aqueous buffer
  solubility: 3.57 µM (≈ 1.32 µg/mL)
[14]; pH 7.4, aqueous buffer
  solubility: 2.62 µM (≈ 0.97 µg/mL)
cGAS-STING pathway
  Induction of ISG54-driven luciferase expression: induced luciferase expression in a concentration-dependent manner
Human STING [15]
  IRF3 phosphorylation and nuclear translocation: only induced IRF3 phosphorylation and nuclear translocation in HepG2/STING cells

## Cc1ccc2c(=O)c3cccc(CC(=O)O)c3oc2c1C [DMXAA, 5’,6’-dimethylxanthenone-4-acetic acid, reference compound]
Human STING [2]; HepG2/STING cells expressing human STING
  Induction of IFN-β mRNA expression: not in HepG2/STING cells

## O=C(NCc1ccco1)c1ccc2c(c1)N(Cc1c(F)cccc1Cl)C(=O)CS2 [G10, reference compound]
Dengue virus (DENV); compared with BNBC
  Reduction of DENV RNA: reduced virial RNAs in similar potencies
Zika virus (ZIKV); compared with BNBC
  Reduction of ZIKV RNA: reduced virial RNAs in similar potencies
Yellow fever virus (YFV); compared with BNBC
  Reduction of YFV RNA: reduced virial RNAs in similar potencies

## Lipopolysaccharides [LPS, reference compound]
[8]
  Induction of cytokine mRNAs: efficiently induced the expression of IFN-β and IL-29 mRNAs and to a lesser extent, TNF-α and IL-6 mRNAs
[10]
  Induction of CD80 expression: significantly induced expression of CD80
